Assay results from patent publication US11155576B2, “Synthetic peptides, enzymatic formation of pericellular hydrogels/nanofibrils, and methods of use” (BRANDEIS UNIVERSITY, priority 2014, dated 2021).

Key:
[1] = test system: secretory phosphatases present in HeLa cell conditioned medium; assay: Hydrogelation in HeLa cell conditioned medium; format: biochemical, human; conditions: 48 hours
Description: 2×10^5 of cells in exponential growth phase were seeded in a 35 mm Petri dish with 1 mL complete culture medium. Following overnight incubation, 1 mL of new medium was replaced and incubated for 24 h at 5% CO2, 37° C. The medium was next removed and centrifuged at 10,000 rpm for 5 minutes. The suspension was placed into a 1.5 mL Eppendorf® tube and stored at −20° C. Stored conditioned medium was thawed and warmed to 37° C. in water bath immediately before use.
HeLa cell conditioned medium (“CM”) dephosphorylates D-2a to form D-2b nanofibrils.

[2] = test system: active PARP; assay: Apoptosis pathway assay (ELISA), active PARP; format: cell-based, human; conditions: HeLa cells, 280 μM, at 24 and 32 hours of incubation
Description: The apoptosis pathway was evaluated using the PathScan® Apoptosis Multi-Target Sandwich ELISA Kit (Cell Signaling Technology) following the supplied protocol. Cells in exponential growth phase were seeded in a 6 cm Petri dish at a concentration of 10×10^5 cells/dish (5 dishes). Cells were allowed to attach to the wells for 24 hours at 37° C., 5% CO2. The culture medium was removed and 5 mL medium containing 280 μM D-2a (immediately diluted from fresh prepared stock solution of 11.2 mM) was placed into each dish. At 0, 6, 12, 24, or 32 hours, the medium was removed and cells were washed three times with cold PBS buffer. 0.9 mL lysis buffer was used to lyse cells in each dish, and 0.9 mL of diluents buffer was used to dilute each of the cell lysate. The lysate was incubated in the provided 96 well plate at 4° C. for 24 hours.
ELISA was used to quantify the amount of several key apoptosis signal molecules over time in the HeLa cells incubated with 280 μM D-2a (FIG. 3E).

[3] = test system: MES-SA/Dx5 cells; assay: MES-SA/Dx5 tumor model in nude mice; format: in vivo; conditions: subcutaneous and peritumoral, 800 μg dose (~32 mg/kg), 6 times every 3 days
Description: Nine nude mice were used for experiments to define the tumor growth curve. 1×10^7 MES-SA/Dx5 cells were implanted into the mice via […] using a 25 G needle. Three of the tumor-bearing mice were used to define the tumor growth curve with control treatment, and six mice were given D-2a. The mice were injected subcutaneously and peritumorally (6 times, every 3 days starting at Day 1) with either 100 μL of D-2a at 8 μg/μL (800 μg dose or ˜32 mg/kg) in PBS buffer (experimental) or 100 μL of PBS buffer (control). Tumor volume measurements were made every three days, also starting on Day 1. Volume of tumors was measured by caliper.

[4] = test system: Alkaline-phosphatase (“ALP”); conditions: D-2a 0.20 wt %/2.77 mM
Text: […] Scale bar=100 nm.
Napthalene capped tripeptide precursor molecule D-2a and hydrogelator molecule D-2b, synthesized according to Yang et al. (Small 3:558-562 (2007), which is hereby incorporated by reference in its entirety), are comprised of the tripeptide D-Phe-D-Phe-D-Tyr (FIG. 1B). The D-Tyr of D-2a is phosphorylated (FIG. 1B).

O=C(Cc1ccc2ccccc2c1)N[C@H](Cc1ccccc1)C(=O)N[C@H](Cc1ccccc1)C(=O)N[C@H](Cc1ccc(OP(=O)(O)O)cc1)C(=O)O [D-2a, Nap-D-Phe-D-Phe-D-Tyr(PO3H2)]
Hydrogel formation in HeLa cell conditioned medium ([1]; 140 μM): fails to form a hydrogel | Hydrogel formation in HeLa cell conditioned medium ([1]; 280 μM): completely transforms from a solution to a hydrogel | Hydrogel formation in HeLa cell conditioned medium ([1]; 560 μM): completely transforms from a solution to a hydrogel | Amount of active PARP [2]: increase significantly | Day by which statistically significant differences between experimental and control groups were observed [3]: ≤ 13 days | Relative tumor volume / tumor growth [3]: inhibited tumor growth | Hydrogel formation after ALP-catalyzed dephosphorylation [4]: self assembles to form the nanofibrils of a hydrogel
